Measurements published in the supplement of paper PMC10307832.

Columns and labels:
Assay in all cases: relative viability (nuclei count vs DMSO), 5 days (fraction); higher = more cells survive
A-427 = test system: A-427
Procedure, shortened: (§1)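 Lung cancer cell lines in 1536-well plates got either a single drug or a fixed anchor-drug dose together with five library-drug doses (not always all listed) in √10 steps, by pin tool, on the day after seeding. Nuclei were counted after 5 days, and relative viability is the treated-to-vehicle ratio of nuclei counts. Values are medians of duplicate plates.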

ABC-1 = test system: ABC-1
Procedure, shortened: as §1

COR-L23 = test system: COR-L23
Procedure, shortened: as §1

ChaGo-K-1 = test system: ChaGo-K-1
Procedure, shortened: as §1

HARA = test system: HARA
Procedure, shortened: as §1

LCLC-97TM1 = test system: LCLC-97TM1
Procedure, shortened: as §1

LK-2 = test system: LK-2
Procedure, shortened: as §1

LOU-NH91 = test system: LOU-NH91
Procedure, shortened: as §1

LU99A = test system: LU99A
Procedure, shortened: as §1

NCI-H1395 = test system: NCI-H1395
Procedure, shortened: as §1

NCI-H1651 = test system: NCI-H1651
Procedure, shortened: as §1

NCI-H1734 = test system: NCI-H1734
Procedure, shortened: as §1

NCI-H1792 = test system: NCI-H1792
Procedure, shortened: as §1

NCI-H1975 = test system: NCI-H1975
Procedure, shortened: as §1

NCI-H2023 = test system: NCI-H2023
Procedure, shortened: as §1

NCI-H2126 = test system: NCI-H2126
Procedure, shortened: as §1

NCI-H2342 = test system: NCI-H2342
Procedure, shortened: as §1

NCI-H23 = test system: NCI-H23
Procedure, shortened: as §1

NCI-H2405 = test system: NCI-H2405
Procedure, shortened: as §1

NCI-H3122 = test system: NCI-H3122
Procedure, shortened: as §1

NCI-H460 = test system: NCI-H460
Procedure, shortened: as §1

NCI-H661 = test system: NCI-H661
Procedure, shortened: as §1

NCI-H838 = test system: NCI-H838
Procedure, shortened: as §1

SK-MES-1 = test system: SK-MES-1
Procedure, shortened: as §1

SW 1573 = test system: SW 1573
Procedure, shortened: as §1

Q: Which results are given for `Nc1cccc2c1CN(C1CCC(=O)NC1=O)C2=O` (centres undefined) [Lenalidomide] + COc1cccc2cc(-c3nc([C@H]4CC[C@H](C(=O)O)CC4)n4ncnc(N)c34)[nH]c12 [OSI-027] (partner 0.5 µM)?
A: relative viability (A-427; first compound 0.253 µM): 0.48; relative viability (A-427; first compound 0.8 µM): 0.387; relative viability (A-427; first compound 2.53 µM): 0.473; relative viability (A-427; first compound 8 µM): 0.514; relative viability (ABC-1; first compound 0.253 µM): 0.453; relative viability (ABC-1; first compound 0.8 µM): 0.489; relative viability (ABC-1; first compound 2.53 µM): 0.533; relative viability (ABC-1; first compound 8 µM): 0.481; relative viability (COR-L23; first compound 0.253 µM): 0.781; relative viability (COR-L23; first compound 0.8 µM): 0.776; relative viability (COR-L23; first compound 2.53 µM): 0.892; relative viability (COR-L23; first compound 8 µM): 0.787; relative viability (ChaGo-K-1; first compound 0.253 µM): 0.586; relative viability (ChaGo-K-1; first compound 0.8 µM): 0.441; relative viability (ChaGo-K-1; first compound 2.53 µM): 0.656; relative viability (ChaGo-K-1; first compound 8 µM): 0.548; relative viability (HARA; first compound 0.253 µM): 0.612; relative viability (HARA; first compound 2.53 µM): 0.564; relative viability (HARA; first compound 8 µM): 0.534; relative viability (LCLC-97TM1; first compound 0.253 µM): 0.544; relative viability (LCLC-97TM1; first compound 0.8 µM): 0.454; relative viability (LCLC-97TM1; first compound 2.53 µM): 0.661; relative viability (LCLC-97TM1; first compound 8 µM): 0.563; relative viability (LK-2; first compound 0.253 µM): 0.215; relative viability (LK-2; first compound 0.8 µM): 0.19; relative viability (LK-2; first compound 2.53 µM): 0.191; relative viability (LK-2; first compound 8 µM): 0.182; relative viability (LOU-NH91; first compound 0.253 µM): 0.769; relative viability (LOU-NH91; first compound 0.8 µM): 0.699; relative viability (LOU-NH91; first compound 2.53 µM): 0.703; relative viability (LOU-NH91; first compound 8 µM): 0.664; relative viability (LU99A; first compound 0.253 µM): 0.31; relative viability (LU99A; first compound 0.8 µM): 0.324; relative viability (LU99A; first compound 2.53 µM): 0.292; relative viability (LU99A; first compound 8 µM): 0.285; relative viability (NCI-H1395; first compound 0.253 µM): 0.74; relative viability (NCI-H1395; first compound 0.8 µM): 0.501; relative viability (NCI-H1395; first compound 2.53 µM): 0.633; relative viability (NCI-H1395; first compound 8 µM): 0.601; relative viability (NCI-H1651; first compound 0.253 µM): 0.772; relative viability (NCI-H1651; first compound 0.8 µM): 0.728; relative viability (NCI-H1651; first compound 2.53 µM): 0.994; relative viability (NCI-H1651; first compound 8 µM): 0.919; relative viability (NCI-H1734; first compound 0.253 µM): 0.63; relative viability (NCI-H1734; first compound 0.8 µM): 0.712; relative viability (NCI-H1734; first compound 2.53 µM): 0.566; relative viability (NCI-H1734; first compound 8 µM): 0.608; relative viability (NCI-H1792; first compound 0.253 µM): 0.682; relative viability (NCI-H1792; first compound 0.8 µM): 0.709; relative viability (NCI-H1792; first compound 2.53 µM): 0.722; relative viability (NCI-H1792; first compound 8 µM): 0.756; relative viability (NCI-H1975; first compound 0.253 µM): 0.817; relative viability (NCI-H1975; first compound 0.8 µM): 0.661; relative viability (NCI-H1975; first compound 2.53 µM): 0.79; relative viability (NCI-H1975; first compound 8 µM): 0.595; relative viability (NCI-H2023; first compound 0.253 µM): 0.418; relative viability (NCI-H2023; first compound 0.8 µM): 0.337; relative viability (NCI-H2023; first compound 2.53 µM): 0.545; relative viability (NCI-H2023; first compound 8 µM): 0.451; relative viability (NCI-H2126; first compound 0.253 µM): 0.66; relative viability (NCI-H2126; first compound 0.8 µM): 0.609; relative viability (NCI-H2126; first compound 2.53 µM): 0.663; relative viability (NCI-H2126; first compound 8 µM): 0.593; relative viability (NCI-H2342; first compound 0.253 µM): 0.67; relative viability (NCI-H2342; first compound 0.8 µM): 0.572; relative viability (NCI-H2342; first compound 2.53 µM): 0.57; relative viability (NCI-H2342; first compound 8 µM): 0.626; relative viability (NCI-H23; first compound 0.253 µM): 0.581; relative viability (NCI-H23; first compound 0.8 µM): 0.499; relative viability (NCI-H23; first compound 2.53 µM): 0.742; relative viability (NCI-H23; first compound 8 µM): 0.502; relative viability (NCI-H2405; first compound 0.253 µM): 0.586; relative viability (NCI-H2405; first compound 0.8 µM): 0.706; relative viability (NCI-H2405; first compound 2.53 µM): 0.588; relative viability (NCI-H2405; first compound 8 µM): 0.596; relative viability (NCI-H3122; first compound 0.253 µM): 0.97; relative viability (NCI-H3122; first compound 0.8 µM): 1.21; relative viability (NCI-H3122; first compound 2.53 µM): 0.914; relative viability (NCI-H3122; first compound 8 µM): 0.898; relative viability (NCI-H460; first compound 0.253 µM): 0.643; relative viability (NCI-H460; first compound 0.8 µM): 0.679; relative viability (NCI-H460; first compound 2.53 µM): 1.01; relative viability (NCI-H460; first compound 8 µM): 0.709; relative viability (NCI-H661; first compound 0.253 µM): 0.722; relative viability (NCI-H661; first compound 0.8 µM): 0.689; relative viability (NCI-H661; first compound 2.53 µM): 0.849; relative viability (NCI-H661; first compound 8 µM): 0.729; relative viability (NCI-H838; first compound 0.253 µM): 0.399; relative viability (NCI-H838; first compound 0.8 µM): 0.34; relative viability (NCI-H838; first compound 2.53 µM): 0.459; relative viability (NCI-H838; first compound 8 µM): 0.383; relative viability (SK-MES-1; first compound 0.253 µM): 0.573; relative viability (SK-MES-1; first compound 0.8 µM): 0.703; relative viability (SK-MES-1; first compound 2.53 µM): 0.63; relative viability (SK-MES-1; first compound 8 µM): 0.613; relative viability (SW 1573; first compound 0.253 µM): 0.573; relative viability (SW 1573; first compound 0.8 µM): 0.712; relative viability (SW 1573; first compound 2.53 µM): 0.792; relative viability (SW 1573; first compound 8 µM): 0.565
